Experiments:
Format in all cases: in vivo
soybean [1] = test: Soybean pod yield in greenhouse, gluconolactone with isoflavonoids (Example 8); settings: for soybean pod yield, Fresh Weight: gluconolactone 1 mg/L, pods harvested after 6 weeks; for yield increase over Cue®: gluconolactone added with Cue®
Experimental: Cue® is a genistein/daidzein isoflavonoid product available from Novozymes Biologicals, Inc. Cue® is used as a soybean seed treatment and the effect of gluconolactone in combination with flavonoids was evaluated to see if soybean production could be enhanced. Gluconolactone was prepared with Cue®. Daidzein, another isoflavonoid, was similarly prepared with gluconolactone with daidzein having the same isoflavonoid concentration as Cue®.
About 100 g soybean seeds were treated with 1 mg/L treatment solutions of gluconolactone and 200 μl of CruiserMaxx® Beans (Syngenta) fungicide+170 μl distilled water+30 μl Cue® or daidzein. For control, a total of 200 μl water was used with 200 μl CruiserMaxx® Bean fungicide. One day after seed treatments, seeds were planted in greenhouse in 1 gallon plastic pots containing soilless mix Fafard 3B. There were 3 plants/pot and 4 pots/treatment. Soybean plants were occasionally fertilized with 20-15-20 NPK fertilizer. Pods were harvested after 6 weeks. Average pod fresh weights were analyzed by student-t test using JUMP statistical software.

yellow pea seedlings = test: Growth of seedlings in water-agar medium in test tube (Example 3), pea
Experimental: (§1) The effect of gluconolactone on growth of seedlings of various crops was examined. Corn, green lentil and yellow pea seeds (100 g) were treated with 1.0 mg/L gluconolactone and control seeds were treated with distilled water according to the protocols of Example 1. After treatments, seeds were allowed to dry overnight. One day after treatment, seeds were placed in 25×150 mm glass test tubes containing 40 ml of 5% water-agar solidified medium. Seeds were placed on the surface of medium in each test tube. Test tubes were then placed in a rack and kept in the lab under diffuse light. As the treated seeds were not sterilized, sterilization of the agar medium was not maintained and the test tubes were kept uncapped. Because of the agar medium being without any sugar, the occurrence of contamination was minimal for up to 10 days. The number of seeds per treatment was 10.

green lentil seedlings = test: Growth of seedlings in water-agar medium in test tube (Example 3), lentil
Experimental: as §1

corn seedling = test: Corn seedling root growth after seed treatment, Petri plate germination, WinRhizo root scanner (Examples 1 and 2)
Experimental: An experiment was performed to determine the effect of gluconolactone on corn seedling root growth parameters. Unsterilized corn seeds (Peterson Hybrid corn 98L90GTCBLL pre-treated with fungicide Acceleron) were treated with water (control) and gluconolactone solutions (1 and 10 mg/L distilled water). In a clear plastic bag (25 cm×25 cm), 100 gram seeds were treated with 500 μl water (for control). Gluconolactone treatments of 1 and 10 mg/L included 250 μl water+250 μl gluconolactone solution with vigorous shaking. Four hours after treatment, 10 seeds were plated in 150 mm×15 mm polystyrene Petri plates (Fisherband) on 5⅜″ germination paper circle (Anchor Paper Co., Saint Paul, Mn) and moistened with 12 ml distilled water. Four Petri plates were prepared per treatment as 4 replicates. Petri plates were then placed in the dark in under-counter cabinets in the lab at 24° C. for 7 days. After 7 days, seedlings were removed from the cabinets, exposed to light, and their main roots severed and measured for various root parameters with WinRhizo root scanner (Regent Instruments Inc., WinRhizo Pro 2007). For all statistical analysis, student t-test was applied using JMPv.9 statistical software.
An experiment was designed to evaluate if any gluconolactone concentration between 1.0-10 mg/L and below 1.0 mg/L has an optimum effect on influencing seedling root growth. Example 2 was conducted according to the protocols of Example 1. Accordingly, gluconolactone concentrations of 5.0 mg/L, 1.0 mg/L, and 0.5 mg/L, were evaluated.

lentil seedlings = test: Stress tolerance of lentil seedlings at 8° C., root growth parameters (Example 11); settings: seven days after plating, 1.0 mg/L gluconolactone, 100 mg/L glutathione, 100 mg/L PADG
Experimental: The effect of antioxidants on stress tolerance by lentil seedlings at 8° C. was evaluated. Lentil seeds treated with the treatment solutions at 5 ml/kg of seed. […] Treated seeds were plated in large Petri plates on germination paper moistened with deionized water. Plates were incubated at 8° C. in a walk in cold room. Seven days after plating, seedling roots were measured for various growth parameters.

soybean [2] = test: Performance of rhizobial inoculants for soybean seeds, pod yield (Example 10)
Experimental: The effect of gluconolactone on the performance of rhizobial inoculants for soybean seeds was evaluated to see if soybean production could be enhanced. 1 mg/L of gluconolactone was added to rhizobial inoculants products Cell-Tech® and Optimize-400® (both from Novozymes Biologicals Inc.). Seed treatments were performed following the instruction cited in the product labels. The total liquid dose going onto soybean seeds was maintained the same when gluconolactone was added. Control seeds were treated with water. About 100 g seed was treated in a clear plastic bag (25 cm×25 cm) with treatment solutions. Seeds were planted 2 hours after treatment in […] containing Fafard soilless mix in greenhouse. 3 plants were allowed to grow per pot and there were 5 pots per treatment. Pods were harvested 6 weeks after planting.

corn seedlings = test: Growth of seedlings in water-agar medium in test tube (Example 3), corn
Experimental: as §1

[3] = gluconolactone 1 mg/L seed treatment, harvested 10 days after planting
[4] = gluconolactone 1 mg/L, non-significantly
[5] = Example 1, GL 1 mg/L seed treatment, main root, 7 days
[6] = Example 1, GL 1 mg/L seed treatment, main root, 7 days, listed as GL
[7] = Example 1, GL 10 mg/L seed treatment, main root, 7 days
[8] = Example 1, GL 10 mg/L seed treatment, main root, 7 days, listed as GL
[9] = Example 2, GL 0.5 mg/L seed treatment
[10] = Example 2, GL 1.0 mg/L seed treatment
[11] = Example 2, GL 5.0 mg/L seed treatment

With O=c1c(-c2ccc(O)cc2)coc2cc(O)ccc12 [Daidzein, reference compound] the “soybean pod yield, Fresh Weight” value (soybean [1]; 1st trial) was 36.782 g, the “soybean pod yield, Fresh Weight” value (soybean [1]; 2nd trial) was 36.4 g and the “soybean pod yield, Fresh Weight” value (soybean [1]; 3rd trial) was 32.482 g.
For O=C1O[C@H](CO)[C@@H](O)[C@H](O)[C@H]1O [Gluconolactone, gluconolactone], the Seedling dry weight (yellow pea seedlings; [3]) was 0.483a g, the “average plant dry biomass higher (than control)” value (“average plant dry biomass higher” below) (yellow pea seedlings; [4]) was 5.0% and the Seedling dry weight (green lentil seedlings; [3]) was 0.083a* g. For the same compound, the “average plant dry biomass higher” value (green lentil seedlings; gluconolactone 1 mg/L, significantly) was 38.3%, the “yield increase over Cue®” value (soybean [1]; 1st trial) was 6% and the “yield increase over Cue®” value (soybean [1]; 2nd trial) was 9.7%. For the same compound, the “yield increase over Cue®” value (soybean [1]; 3rd trial) was 0.6%, the “yield increase (over daidzein alone)” value (soybean [1]; gluconolactone added with daidzein, in 2 out of 3 trials) was “approximately 2.5%” and the Diameter (corn seedling; [5]) was 0.940a mm. For the same compound, the Surface area (corn seedling; [5]) was “significantly higher than control”, the Volume (corn seedling; [5]) was “significantly higher than control” and the Length (corn seedling; Example 1, GL 1 mg/L seed treatment, main root, 7 days in dark at 24° C.) was “significantly higher than control”. It also gave a Length (corn seedling; Example 1, GL 1 mg/L seed treatment, main root, 7 days in dark at 24° C., listed as GL) of 7.108a cm, a Surface area (corn seedling; [6]) of 2.128a cm^2 and a Volume (corn seedling; [6]) of 0.051a cm^3. For the same compound, the Diameter (corn seedling; [7]) was “did not show any difference”, the Length (corn seedling; [7]) was “did not show any difference” and the Surface area (corn seedling; [7]) was “did not show any difference”. The Volume (corn seedling; [7]) was “did not show any difference”, the Length (corn seedling; [8]) was 6.282ab cm and the Surface area (corn seedling; [8]) was 1.748ab cm^2. For the same compound, the Volume (corn seedling; [8]) was 0.039ab cm^3, the Diam (corn seedling; [9]) was 1.190a mm and the Length (corn seedling; [9]) was 6.778ab cm. For the same compound, the “Root Volume” value (corn seedling; [9]) was 0.076a cm3, the Diam (corn seedling; [10]) was 1.116b mm and the Length (corn seedling; [10]) was “optimum dose”. The “Root Volume” value (corn seedling; [10]) was 0.070ab cm3, the Length (corn seedling; Example 2, GL 1.0 mg/L seed treatment, listed as GL) was 7.048a cm and the Diam (corn seedling; [11]) was 1.149ab mm. The Length (corn seedling; [11]) was “least effective”, the “Root Volume” value (corn seedling; [11]) was 0.063b cm3 and the Length (corn seedling; Example 2, GL 5.0 mg/L seed treatment, listed as GL) was 6.054b cm. For the same compound, the “No. of lateral roots” value (lentil seedlings) was 2.935 ab, the “Seedling Root Length” value (lentil seedlings) was 2.895 a cm and the “Surface area” value (lentil seedlings) was 0.9457 a cm^2. For the same compound, the Volume (lentil seedlings) was 0.02474 a cm^3, the “No. of lateral roots” value (lentil seedlings; listed as gluconolactone) was “significantly increased” and the “Seedling Root Length” value (lentil seedlings; listed as gluconolactone) was “significantly increased”. The “Surface area” value (lentil seedlings; listed as gluconolactone) was “significantly increased”, the Volume (lentil seedlings; listed as gluconolactone) was “significantly increased” and the “% increase (dry pod yield)” value (soybean [2]; 1 mg/L gluconolactone added to Cell-Tech, over Cell-Tech alone) was 3.36%. The “% increase (dry pod yield)” value (soybean [2]; 1 mg/L gluconolactone added to Optimize-400, over Optimize-400 alone) was 4.84%, the Seedling dry weight (corn seedlings; [3]) was 0.606a g and the “average plant dry biomass higher” value (corn seedlings; [4]) was 6.3%.
